Assay results reported in patent US3995058A, “Treatment of ethanol withdrawal symptoms with levodopa” (priority 1975, dated 1976).
Like-named read-outs stand apart in the source and are kept apart here.

Assays:
parkinsonism tremor = settings: in vivo; cited from earlier work
[1] = test system: ethanol withdrawal head-twitches; test: Suppression of ethanol withdrawal head-twitches in mice habituated to ethanol; assay type: in vivo, mice (male T/O); settings: for ED50: Mus musculus; for suppression of head-twitches: mice undergoing ethanol withdrawal
Procedure: (§1) Male T/O mice were habituated to ethanol by oral administration of aqueous ethanol solutions over three days. Ethanol was administered as a 40% w/v solution, the animals receiving 4 g/kg on the first day, 5 g/kg on the second day and 6 g/kg on the third day. Twenty-four hours after the third dose, approximately 12 hours after blood ethanol had fallen to zero, mice were observed over a period of 4 minutes in groups of five and the number of head-twitches were recorded for each animal. All animals received two doses of levodopa or vehicle, one 6 hours after the last dose of ethanol and the other one hour before observation of the animals. The amount of discoordination produced by each treatment was also determined by measuring the animals' ability to remain for 1 minute on a drum, 30 cm diameter, rotating at a speed of 1 rpm. Using a quantal method the median effective dose (ED50) to suppress head-twitches was determined. […] The ratio FD50 to ED50 gives the therapeutic ratio.
All drugs given one hour before observation except noradrenaline (35
minutes). Doses are expressed as mg/kg orally (P.O.), subcutaneously
(S.C.) or intracerebrally (I.C.V.). *Animals in levodopa experiment
received two doses of levodopa or vehicle, the first being given six hour
after the last dose of ethanol, the second one hour before observation.
The values indicated are computed from the doses of levodopa given on eac
(§2) occasion. The dose of each drug to discoordinate 50% of the animals (FD
(§3) 50) was compared with the dose that reduced to 50% the proportion of mice
(§4) showing head-twitches (ED 50).

[2] = Therapeutic ratio FD50/ED50 (discoordination against head-twitches); settings: mouse, in vivo
Procedure: as §1, §2, §3, §4

[3] = Discoordination: ability to remain for 1 minute on a rotating drum; settings: mouse, in vivo; for TD50 at 1 h: po
Procedure: as §1, §2, §3

brain catecholamines = settings: increasing doses of levodopa; cited from earlier work
discoordination = test: Discoordination: ability to remain for 1 minute on a rotating drum; settings: mouse, in vivo
Procedure: as §1, §2, §3

depression = settings: in vivo; cited from earlier work
sleep = settings: cited from earlier work
[4] = test system: delirium tremors or seizures; settings: severe cases of physical dependence; cited from earlier work
withdrawal symptoms = test: Production of withdrawal symptoms; settings: in vivo

NC(CO)C(=O)NNCc1cc(O)c(O)c(O)c1 (racemic) [N'-(D,L-seryl)-N"-(3,4,5-trihydroxybenzyl)-hydrazine]
control of parkinsonism tremor (parkinsonism tremor): useful in the control of parkinsonism tremor

CC(N)Cc1ccccc1.O=S(=O)(O)O (centres unmarked) [Amphetamine sulphate]
ED50 ([1]; sc, 1 h, read-out: ED 50 value to reduce head-twitches (with 95% fiducial limits)): 7.18 mg/kg | suppression of head-twitches ([1]; subcutaneously): complete suppression of head-twitches

CCO [Ethanol, ethanol]
selectivity ratio ([2]; po): 0.6 | TD50 at 1 h [3]: 2500 mg/kg | ED50 ([1]; po, 1 h, P.O., one hour before observation, read-out: ED 50 value to reduce head-twitches (with 95% fiducial limits)): 3990 mg/kg

N[C@@H](Cc1ccc(O)c(O)c1)C(=O)O [L-DOPA, L-β-3,4-dihydroxyphenylalanine]
shift of brain catecholamine levels (brain catecholamines): increasing shift of brain levels from dopamine to noradrenaline | selectivity ratio ([2]; po): 3.5 | animals discoordinated (discoordination): none of the animals were discoordinated | TD50 at 1 h [3]: > 800 mg/kg | therapeutic use in the treatment of depression (depression): of questionable value | ED50 ([1]; po, P.O.*, two doses: 6 h after last ethanol and 1 h before observation, per-occasion dose, limits 63-1213, read-out: ED 50 value to reduce head-twitches (with 95% fiducial limits)): 232 mg/kg | ED50 ([1]; po, levodopa, text of summary, read-out: median effective dose (ED50) required to prevent or suppress withdrawal symptoms): 231 mg/kg | effect on sleeping time with repeated doses (sleep; increasing numbers of doses): this effect became smaller with increasing numbers of doses | increase in sleeping time (sleep; single dose 400 mg/kg): three-fold increase in sleeping time

NC[C@H](O)c1ccc(O)c(O)c1 [Noradrenaline]
selectivity ratio [2]: > 3.3 | TD50 at 35 min ([3]; icv or intrathecal): > 0.01 mg/kg | ED50 ([1]; central, 35 min, I.C.V., 35 minutes before observation, read-out: ED 50 value to reduce head-twitches (with 95% fiducial limits)): 0.003 mg/kg | suppression of head-twitches ([1]; intracerebral injection): complete suppression of head-twitches

CCCC(C)C1(CC)C(=O)NC(=O)NC1=O (centres unmarked) [Pentobarbitone sodium]
selectivity ratio ([2]; po): 0.4 | TD50 at 1 h [3]: 91 mg/kg | ED50 ([1]; po, 1 h, read-out: ED 50 value to reduce head-twitches (with 95% fiducial limits)): 231 mg/kg

CN(C)CCCN1c2ccccc2Sc2ccc(Cl)cc21 [chlorpromazine]
prevention of delirium tremors or seizures [4]: ineffective to prevent delirium tremors or seizures

CN(C)CCCN1c2ccccc2Sc2ccccc21 [promazine]
prevention of delirium tremors or seizures [4]: ineffective to prevent delirium tremors or seizures

CC(N)(Cc1ccc(O)cc1)C(=O)O (stereo not drawn) [α-methyl p-tyrosine]
withdrawal symptoms produced (withdrawal symptoms): produces withdrawal symptoms that can be reduced by anti-serotonin agents

CC(Cc1ccc(O)c(O)c1)(NN)C(=O)O (stereo not drawn) [α-methyl-dopa hydrazine]
control of parkinsonism tremor (parkinsonism tremor): useful in the control of parkinsonism tremor
